# According to patent publication US20260125400A1, “TYK2 DEGRADERS AND USES THEREOF” (Kymera Therapeutics, Inc., priority 2023, published 2026):
# Target: T1, TYK2 (Homo sapiens, UniProt P29597)
# T1 construct: Degradation of TYK2 in cells was quantitatively measured using Meso Scale Discovery (MSD) technology; endogenous in cells; host or cells: OCI-LY10
# Assay: TYK2 MSD degradation in OCI-LY10 cells
# Type: cell-based
# Settings: TYK2 degradation in OCI-LY10 cells, 4 to 24 hours incubation; for DC50: read-out: TYK2 MSD OCI-LY10 Rel-DC50
# Method: Example 7. TYK2 MSD Degradation
# Degradation of TYK2 in cells was quantitatively measured using Meso Scale Discovery (MSD) technology. OCI-LY10 cells were seeded in 96-well plates with a density of 0.4 million cells per well in 100 μl fresh media. Compounds were then added to the assay plates with a final top concentration of 1 to 10 μM in a 1:3 dilution series with total of 9 doses. The assay plates were then incubated for 4 to 24 hours at 37° C. under […]. The assay plates were then centrifuged for 5 minutes, and the cell pellets were treated with 100 μl/well RIPA lysis buffer (Boston Bioproducts, BP-115D) with protease and phosphatase inhibitors (Roche, 05892791001 and 04906837001). To prepare MSD assay plates (MSD, L15XA), the plates were coated with the capture antibody (Santa Cruz Biotechnology, SC-5271) in PBS, at 40 μl/well. The plates were then incubated overnight at 4° C., washed 3 times with 150 μl/well TBST buffer (Cell Signaling Technology, 9997S) and blocked with 150 μl/well blocking buffer (MSD, R93BA-4). Cell lysates were then added to MSD assay plates and the plates were incubated at room temperature for 1 hour. The plates were then washed 3 times with 150 μl/well TBST buffer and 25 μl/well primary detection antibody (Cell Signaling Technology, #9312). The assay plates were then incubated at room temperature for 1 hour, washed 3 times with 150 μl/well TBST buffer, and 25 μl/well secondary detection antibody, SULFO-TAG anti-rabbit antibody (MSD, R32AB-1) were added. The assay plates were then incubated at room temperature for 1 hour, washed 3 times with 150 μl/well TB ST buffer, and 150 μl/well MSD reading buffer (MSD, R92TC-2) were added. The plates were then analyzed by an MSD reader. The data was analyzed by GraphPad Prism and the dose dependent TYK2 degradation was fit using the four-parameter inhibitor vs. response nonlinear regression.
# The letter codes for TYK2 DC50 include: A (<1 nM); B (i to <10 nM); C (10 to 100 nM); D (>100 nM); and E (not tested). The letter codes for TYK2 Dmax % include: A (>90%); B (90 to >75%); C (75 to 50%); D (<50%); and E (not tested).
# T1 sequence (P29597 whole entry): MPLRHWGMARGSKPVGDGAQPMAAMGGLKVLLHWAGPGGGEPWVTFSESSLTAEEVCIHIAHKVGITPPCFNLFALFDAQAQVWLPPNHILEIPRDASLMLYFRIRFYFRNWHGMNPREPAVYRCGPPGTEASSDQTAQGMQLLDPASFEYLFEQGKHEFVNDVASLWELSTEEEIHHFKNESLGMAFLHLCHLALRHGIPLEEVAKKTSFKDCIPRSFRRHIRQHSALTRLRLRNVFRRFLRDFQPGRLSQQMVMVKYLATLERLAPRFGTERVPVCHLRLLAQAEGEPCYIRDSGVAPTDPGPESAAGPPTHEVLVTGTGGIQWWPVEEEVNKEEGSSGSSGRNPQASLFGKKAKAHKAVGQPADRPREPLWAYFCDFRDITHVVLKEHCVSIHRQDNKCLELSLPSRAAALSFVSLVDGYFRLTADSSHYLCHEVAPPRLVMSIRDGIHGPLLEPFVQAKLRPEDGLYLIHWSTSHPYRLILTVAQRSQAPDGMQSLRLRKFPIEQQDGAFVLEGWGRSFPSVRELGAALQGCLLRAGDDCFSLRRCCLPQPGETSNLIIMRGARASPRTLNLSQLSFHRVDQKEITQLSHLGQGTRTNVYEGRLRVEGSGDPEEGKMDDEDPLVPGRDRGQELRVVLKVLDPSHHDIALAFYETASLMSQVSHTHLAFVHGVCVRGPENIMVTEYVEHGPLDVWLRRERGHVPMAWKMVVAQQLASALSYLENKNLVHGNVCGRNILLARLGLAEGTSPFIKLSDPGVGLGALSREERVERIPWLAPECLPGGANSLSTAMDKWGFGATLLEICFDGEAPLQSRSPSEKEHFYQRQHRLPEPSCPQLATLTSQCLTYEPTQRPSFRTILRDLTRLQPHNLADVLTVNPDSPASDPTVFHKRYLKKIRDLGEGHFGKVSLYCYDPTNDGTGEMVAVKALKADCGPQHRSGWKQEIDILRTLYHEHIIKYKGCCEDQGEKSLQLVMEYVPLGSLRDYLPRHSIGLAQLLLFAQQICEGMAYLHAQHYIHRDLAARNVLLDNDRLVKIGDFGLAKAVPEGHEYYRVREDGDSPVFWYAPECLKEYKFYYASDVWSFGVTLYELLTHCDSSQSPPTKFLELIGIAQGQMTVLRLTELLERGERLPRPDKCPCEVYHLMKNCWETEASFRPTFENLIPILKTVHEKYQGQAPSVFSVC
Structure (SMILES),TYK2 MSD OCI-LY10 Dmax %,DC50
CNc1cc(N2CCc3c(N4CCN(C5CCN(C(=O)c6ccc(Cl)c(N7CCC(=O)NC7=O)c6)CC5)CC4)cccc32)nn2c(C(=O)N[C@@H]3C[C@@H]3F)cnc12 [I-94],D (D (<50%)),> 100 nM
CNc1cc(N2CCc3c(-c4ccc(CN5CCC6(CC5)CCN(Cc5ccc(Cl)c(N7CCC(=O)NC7=O)c5)CC6)cn4)cccc32)nn2c(C(=O)N[C@@H]3C[C@@H]3F)cnc12 [I-95],D (D (<50%)),> 100 nM
CNc1cc(N2CCc3c(-c4ccc(CN5CCC6(CCC(Oc7ccc(Cl)c(N8CCC(=O)NC8=O)c7)CC6)CC5)cn4)cccc32)nn2c(C(=O)N[C@@H]3C[C@@H]3F)cnc12 [I-96],D (D (<50%)),< 10 nM
CNc1cc(-c2cccc(N3CCN(Cc4ccc5c(c4)n(C)c(=O)n5C4CCC(=O)NC4=O)CC3)n2)nn2c(C(=O)NC3CC3)cnc12 (stereo not shown) [I-198],D (D (<50%)),> 100 nM
CNc1cc(N2CCc3c(CN4CCC(N5CCC6(CCN(c7ccc8c(c7)n(C)c(=O)n8C7CCC(=O)NC7=O)CC6)CC5)C(F)(F)C4)cccc32)nn2c(C(=O)N[C@@H]3C[C@@H]3F)cnc12 (stereo partly shown) [I-237],B (B (90 to >75%)),< 1 nM
CNc1cc(N2CCc3c(C#CCN4CC5(CCN(C(=O)c6ccc(Cl)c(N7CCC(=O)NC7=O)c6)CC5(F)F)C4)cccc32)nn2c(C(=O)N[C@@H]3C[C@@H]3F)cnc12 [I-241],C (C (75 to 50%)),< 10 nM
CNc1cc(N2CCc3c(C#CCN4CCC5(CCN(C(=O)c6ccc(Cl)c(N7CCC(=O)NC7=O)c6)CC5)C(F)(F)C4)cccc32)nn2c(C(=O)N[C@@H]3C[C@@H]3F)cnc12 [I-242],C (C (75 to 50%)),< 10 nM
CNc1cc(N2CCc3c(-c4ccc(CN5CCC(N6CCC(Oc7ccc(Cl)c(N8CCC(=O)NC8=O)c7)CC6)C(F)(F)C5)cn4)cccc32)nn2c(C(=O)N[C@@H]3C[C@@H]3F)cnc12 (stereo partly shown) [I-245],D (D (<50%)),> 100 nM
CNc1cc(N2CCc3c(-c4ccc(CN5CC6(CCN(C(=O)c7ccc(Cl)c(N8CCC(=O)NC8=O)c7)CC6)C5)nc4)cccc32)nn2c(C(=O)N[C@@H]3C[C@@H]3F)cnc12 [I-247],B (B (90 to >75%)),< 10 nM
CNc1cc(N2CCc3c(-c4cc(N5CCC6(CCN(C(=O)c7ccc(Cl)c(N8CCC(=O)NC8=O)c7)CC6)CC5)ccn4)cccc32)nn2c(C(=O)N[C@@H]3C[C@@H]3F)cnc12 [I-248],C (C (75 to 50%)),< 10 nM
CNc1cc(N2CCc3c(-c4ccc(N5CCC6(CCN(C(=O)c7ccc(Cl)c(N8CCC(=O)NC8=O)c7)CC6)CC5)cn4)cccc32)nn2c(C(=O)N[C@@H]3C[C@@H]3F)cnc12 [I-249],D (D (<50%)),> 100 nM
CNc1cc(N2CCc3c(-c4ncc(CN5CC6(CCN(C(=O)c7ccc(Cl)c(N8CCC(=O)NC8=O)c7)CC6)C5)cn4)cccc32)nn2c(C(=O)N[C@@H]3C[C@@H]3F)cnc12 [I-250],B (B (90 to >75%)),< 1 nM
CNc1cc(N2CCc3c(-c4ccc(CN5CCC6(CCC(Nc7ccc(Cl)c(C8CCC(=O)NC8=O)c7)CC6)CC5)cn4)cccc32)nn2c(C(=O)N[C@@H]3C[C@@H]3F)cnc12 (stereo partly shown) [I-251],C (C (75 to 50%)),< 10 nM
CNc1cc(N2CCc3c(-c4ccc(CC5CC6(CCN(C(c7ccc(Cl)c(N8CCC(=O)NC8=O)c7)C(F)(F)F)CC6)C5)cn4)cccc32)nn2c(C(=O)N[C@@H]3C[C@@H]3F)cnc12 (stereo partly shown) [I-272],D (D (<50%)),> 100 nM
CNc1cc(N2CCc3c(-c4ccc(CN5CCC(N6CC(N7CCN(c8cccc9c8n(C)c(=O)n9C8CCC(=O)NC8=O)CC7)C6)C(F)(F)C5)cn4)cccc32)nn2c(C(=O)N[C@@H]3C[C@@H]3F)cnc12 (stereo partly shown) [I-277],B (B (90 to >75%)),< 1 nM
CNc1cc(N2CCc3c(-c4ccc(CN5CCC(N6CC7(CCN(c8cccc9c8n(C)c(=O)n9C8CCC(=O)NC8=O)CC7)C6)C(F)(F)C5)cn4)cccc32)nn2c(C(=O)N[C@@H]3C[C@@H]3F)cnc12 (stereo partly shown) [I-279],B (B (90 to >75%)),< 10 nM

Structure (SMILES),TYK2 MSD OCI-LY10 Dmax %,DC50
CNc1cc(N2CCc3c(-c4ccc(CN5CCC(N6CCC7(CC6)CN(c6cccc8c6n(C)c(=O)n8C6CCC(=O)NC6=O)C7)C(F)(F)C5)cn4)cccc32)nn2c(C(=O)N[C@@H]3C[C@@H]3F)cnc12 (stereo partly shown) [I-280],B (B (90 to >75%)),< 10 nM
CNc1cc(N2CCc3c(-c4ccc(CN5CCC(N6CCC7(CCN(c8cccc9c8n(C)c(=O)n9C8CCC(=O)NC8=O)CC7)CC6)C(F)(F)C5)cn4)cccc32)nn2c(C(=O)N[C@@H]3C[C@@H]3F)cnc12 (stereo partly shown) [I-281],C (C (75 to 50%)),< 10 nM
CNc1cc(N2CCc3c(-c4ccc(CN5CCC(N6CC(N7CCN(c8ccc9c(c8)n(C)c(=O)n9C8CCC(=O)NC8=O)CC7)C6)C(F)(F)C5)cn4)cccc32)nn2c(C(=O)N[C@@H]3C[C@@H]3F)cnc12 (stereo partly shown) [I-282],B (B (90 to >75%)),< 1 nM
CNc1cc(N2CCc3c(N4CCN(C5CC6(CCN(C(=O)c7ccc(Cl)c(N8CCC(=O)NC8=O)c7)CC6)C5)CC4)cccc32)nn2c(C(=O)N[C@@H]3C[C@@H]3F)cnc12 [I-283],D (D (<50%)),> 100 nM
CNc1cc(N2CCc3c(N4CCN(C5CCC6(CC5)CCN(C(=O)c5ccc(Cl)c(N7CCC(=O)NC7=O)c5)CC6)CC4)cccc32)nn2c(C(=O)N[C@@H]3C[C@@H]3F)cnc12 [I-284],D (D (<50%)),> 100 nM
CNc1cc(N2CCc3c(N4CCN(C5CCN(C6CCN(C(=O)c7ccc(Cl)c(N8CCC(=O)NC8=O)c7)CC6)CC5)CC4)cccc32)nn2c(C(=O)N[C@@H]3C[C@@H]3F)cnc12 [I-287],D (D (<50%)),> 100 nM
CNc1cc(N2CCc3c(N4CCN(C5CN(C6CCN(C(=O)c7ccc(Cl)c(N8CCC(=O)NC8=O)c7)CC6)C5)CC4)cccc32)nn2c(C(=O)N[C@@H]3C[C@@H]3F)cnc12 [I-288],D (D (<50%)),> 100 nM
CNc1cc(N2CCc3c(-c4ccc(CN5CCC6(CCN(Cc7ccc(Cl)c(N8CCC(=O)NC8=O)c7)CC6)C(F)(F)C5)cn4)cccc32)nn2c(C(=O)N[C@@H]3C[C@@H]3F)cnc12 [I-289],D (D (<50%)),> 100 nM
CNc1cc(N2CCc3c(CN4CCC(N5CCC(Oc6ccc(Cl)c(N7CCC(=O)NC7=O)c6)CC5)C(F)(F)C4)cccc32)nn2c(C(=O)N[C@@H]3C[C@@H]3F)cnc12 (stereo partly shown) [I-291],D (D (<50%)),> 100 nM
CNc1cc(N2CCc3c(-c4ccc(CN5CC6(C5)CN(C(=O)c5ccc(Cl)c(N7CCC(=O)NC7=O)c5)C6)cn4)cccc32)nn2c(C(=O)NC3CC3F)cnc12 (stereo not shown) [I-295],D (D (<50%)),< 10 nM
CNc1cc(N2CCc3c(-c4ccc(CN5CC6(CCN(C(=O)c7ccc(Cl)c(N8CCC(=O)NC8=O)c7)C6)C5)cn4)cccc32)nn2c(C(=O)NC3CC3F)cnc12 (stereo not shown) [I-296],C (C (75 to 50%)),< 1 nM
CNc1cc(N2CCc3c(-c4ccc(CN5CCC6(C5)CN(C(=O)c5ccc(Cl)c(N7CCC(=O)NC7=O)c5)C6)cn4)cccc32)nn2c(C(=O)NC3CC3F)cnc12 (stereo not shown) [I-297],C (C (75 to 50%)),< 10 nM
CNc1cc(N2CCc3c(-c4ccc(CN5CCC6(CCN(C(=O)c7ccc(Cl)c(N8CCC(=O)NC8=O)c7)C6)C5)cn4)cccc32)nn2c(C(=O)NC3CC3F)cnc12 (stereo not shown) [I-302],C (C (75 to 50%)),< 1 nM
CNc1cc(N2CCc3c(-c4ccc(CN5CC6(CCN(C(=O)c7cccc(N8CCC(=O)NC8=O)c7C)CC6)C5)cn4)cccc32)nn2c(C(=O)NC3CC3F)cnc12 (stereo not shown) [I-309],D (D (<50%)),> 100 nM
CNc1cc(N2CCc3c(-c4ccc(CN5CCN(CC#Cc6cccc(N7CCC(=O)NC7=O)c6C)CC5)cn4)cccc32)nn2c(C(=O)NC3CC3F)cnc12 (stereo not shown) [I-311],C (C (75 to 50%)),> 100 nM
CNc1cc(N2CCc3c(-c4ccc(CN5CCC6(CCC(COc7ccc(N8CCC(=O)NC8=O)c(Cl)c7)CC6)CC5)cn4)cccc32)nn2c(C(=O)N[C@@H]3C[C@@H]3F)cnc12 [I-339],D (D (<50%)),< 10 nM
